Source: PubChem BioAssay AID1963441 (Molecular Pharmacology Branch, DTP, NCI, 2024)
Several values for one entry are separate records, joined by “and”; a condition that tells them apart may be missing. Identical values can stand only once.

Test system: NCI-H1876 complex spheroid growth, % test/control
Assay: Anticancer human tumor NCI-H1876 cell line growth inhibition [Asc];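 note: compound exposure lasted 7 days starting three days after seeding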;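 for viability, T/C: 100% = DMSO vehicle control wells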
Settings: for viability, T/C: stronger effect = lower value
Method in brief: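 Tumor cells were grown as complex spheroids with human endothelial cells (HUVEC) and human mesenchymal stem cells as stroma. Agents were tested alone and in combination, in half-log steps down from the clinical Cmax, or from 10 microM where Cmax was unknown.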

[1] = curve of first compound, second compound 0.00949 µM
[2] = curve of first compound, second compound 0.03 µM
[3] = curve of first compound, second compound 0.0949 µM
[4] = curve of first compound, second compound 0.3 µM
[5] = curve of first compound, second compound 0.949 µM
[6] = curve of first compound, second compound 3 µM

SMILES: CNC(C)C(=O)NC1CN(S(=O)(=O)c2cccc(S(=O)(=O)N3CCC4CCC(C(=O)NC(c5ccccc5)c5ccccc5)N4C(=O)C(NC(=O)C(C)NC)C3)c2)CCC2CCC(C(=O)NC(c3ccccc3)c3ccccc3)N2C1=O (stereo unspecified) + CCN1C(C(=O)NC23CCC(C(=O)O)(CC2)CC3)C(c2cccc(Cl)c2F)C2(C(=O)Nc3cc(Cl)ccc32)C12CCCCC2
- IC50 [1]: > 1000 nM
- IC50 [2]: > 1000 nM
- IC50 [3]: > 1000 nM
- IC50 [4]: > 1000 nM
- IC50 [5]: > 1000 nM
- IC50 [6]: > 1000 nM
- viability, T/C (second compound 0.00949 µM, first compound 0.00316 µM): 101%
- viability, T/C (second compound 0.00949 µM, first compound 0.01 µM): 99.6%
- viability, T/C (second compound 0.00949 µM, first compound 0.0316 µM): 101%
- viability, T/C (second compound 0.00949 µM, first compound 0.1 µM): 100%
- viability, T/C (second compound 0.00949 µM, first compound 0.316 µM): 116%
- viability, T/C (second compound 0.00949 µM, first compound 1 µM): 102%
- viability, T/C (second compound 0.03 µM, first compound 0.00316 µM): 103%
- viability, T/C (second compound 0.03 µM, first compound 0.01 µM): 96.7%
- viability, T/C (second compound 0.03 µM, first compound 0.0316 µM): 98.8%
- viability, T/C (second compound 0.03 µM, first compound 0.1 µM): 98.4%
- viability, T/C (second compound 0.03 µM, first compound 0.316 µM): 115%
- viability, T/C (second compound 0.03 µM, first compound 1 µM): 97%
- viability, T/C (second compound 0.0949 µM, first compound 0.00316 µM): 111%
- viability, T/C (second compound 0.0949 µM, first compound 0.01 µM): 104%
- viability, T/C (second compound 0.0949 µM, first compound 0.0316 µM): 106%
- viability, T/C (second compound 0.0949 µM, first compound 0.1 µM): 106%
- viability, T/C (second compound 0.0949 µM, first compound 0.316 µM): 98.5%
- viability, T/C (second compound 0.0949 µM, first compound 1 µM): 110%
- viability, T/C (second compound 0.3 µM, first compound 0.00316 µM): 103%
- viability, T/C (second compound 0.3 µM, first compound 0.01 µM): 108%
- viability, T/C (second compound 0.3 µM, first compound 0.0316 µM): 108%
- viability, T/C (second compound 0.3 µM, first compound 0.1 µM): 108%
- viability, T/C (second compound 0.3 µM, first compound 0.316 µM): 118%
- viability, T/C (second compound 0.3 µM, first compound 1 µM): 103%
- viability, T/C (second compound 0.949 µM, first compound 0.00316 µM): 114%
- viability, T/C (second compound 0.949 µM, first compound 0.01 µM): 119%
- viability, T/C (second compound 0.949 µM, first compound 0.0316 µM): 106%
- viability, T/C (second compound 0.949 µM, first compound 0.1 µM): 119%
- viability, T/C (second compound 0.949 µM, first compound 0.316 µM): 115%
- viability, T/C (second compound 0.949 µM, first compound 1 µM): 112%
- viability, T/C (second compound 3 µM, first compound 0.00316 µM): 114%
- viability, T/C (second compound 3 µM, first compound 0.01 µM): 108%
- viability, T/C (second compound 3 µM, first compound 0.0316 µM): 107%
- viability, T/C (second compound 3 µM, first compound 0.1 µM): 99.5%
- viability, T/C (second compound 3 µM, first compound 0.316 µM): 110%
- viability, T/C (second compound 3 µM, first compound 1 µM): 109%

SMILES: NC1CCC(NC2CC2c2ccccc2)CC1 (stereo unspecified)
- viability, T/C (compound 0.000316 µM): 121% and 119% (2×)
- viability, T/C (compound 0.001 µM): 108% and 95.7% and 118%
- viability, T/C (compound 0.00316 µM): 118% and 112% and 134%
- viability, T/C (compound 0.01 µM): 116% and 106% and 120%
- viability, T/C (compound 0.0316 µM): 116% and 112% and 131%
- viability, T/C (compound 0.1 µM): 107% and 112% and 136%
- IC50 (curve of compound): > 100 nM

SMILES: Cc1nc(N2CCC3(CC2)COC(C)C3N)c(CO)nc1Sc1ccnc(N)c1Cl (stereo unspecified) + CCN1C(C(=O)NC23CCC(C(=O)O)(CC2)CC3)C(c2cccc(Cl)c2F)C2(C(=O)Nc3cc(Cl)ccc32)C12CCCCC2
- IC50 [1]: > 3000 nM
- IC50 [2]: > 3000 nM
- IC50 [3]: > 3000 nM
- IC50 [4]: > 3000 nM
- IC50 [5]: > 3000 nM
- IC50 [6]: > 3000 nM
- viability, T/C (second compound 0.00949 µM, first compound 0.00949 µM): 89.1%
- viability, T/C (second compound 0.00949 µM, first compound 0.03 µM): 90%
- viability, T/C (second compound 0.00949 µM, first compound 0.0949 µM): 92.1%
- viability, T/C (second compound 0.00949 µM, first compound 0.3 µM): 102%
- viability, T/C (second compound 0.00949 µM, first compound 0.949 µM): 91.6%
- viability, T/C (second compound 0.00949 µM, first compound 3 µM): 77.5%
- viability, T/C (second compound 0.03 µM, first compound 0.00949 µM): 99.6%
- viability, T/C (second compound 0.03 µM, first compound 0.03 µM): 104%
- viability, T/C (second compound 0.03 µM, first compound 0.0949 µM): 118%
- viability, T/C (second compound 0.03 µM, first compound 0.3 µM): 93.5%
- viability, T/C (second compound 0.03 µM, first compound 0.949 µM): 92.4%
- viability, T/C (second compound 0.03 µM, first compound 3 µM): 80.2%
- viability, T/C (second compound 0.0949 µM, first compound 0.00949 µM): 103%
- viability, T/C (second compound 0.0949 µM, first compound 0.03 µM): 113%
- viability, T/C (second compound 0.0949 µM, first compound 0.0949 µM): 94.3%
- viability, T/C (second compound 0.0949 µM, first compound 0.3 µM): 92.4%
- viability, T/C (second compound 0.0949 µM, first compound 0.949 µM): 93.9%
- viability, T/C (second compound 0.0949 µM, first compound 3 µM): 87.3%
- viability, T/C (second compound 0.3 µM, first compound 0.00949 µM): 109%
- viability, T/C (second compound 0.3 µM, first compound 0.03 µM): 104%
- viability, T/C (second compound 0.3 µM, first compound 0.0949 µM): 93.4%
- viability, T/C (second compound 0.3 µM, first compound 0.3 µM): 99.5%
- viability, T/C (second compound 0.3 µM, first compound 0.949 µM): 88.7%
- viability, T/C (second compound 0.3 µM, first compound 3 µM): 88.7%
- viability, T/C (second compound 0.949 µM, first compound 0.00949 µM): 108%
- viability, T/C (second compound 0.949 µM, first compound 0.03 µM): 106%
- viability, T/C (second compound 0.949 µM, first compound 0.0949 µM): 103%
- viability, T/C (second compound 0.949 µM, first compound 0.3 µM): 109%
- viability, T/C (second compound 0.949 µM, first compound 0.949 µM): 105%
- viability, T/C (second compound 0.949 µM, first compound 3 µM): 87%
- viability, T/C (second compound 3 µM, first compound 0.00949 µM): 108%
- viability, T/C (second compound 3 µM, first compound 0.03 µM): 97.9%
- viability, T/C (second compound 3 µM, first compound 0.0949 µM): 74%
- viability, T/C (second compound 3 µM, first compound 0.3 µM): 90.3%
- viability, T/C (second compound 3 µM, first compound 0.949 µM): 90.1%
- viability, T/C (second compound 3 µM, first compound 3 µM): 67%
